System: patients with advanced solid tumors
Assay: First-in-human phase 1 dose-escalation study: safety, DLTs, adverse events
Assay type: in vivo
Text: This multicenter first-in-human dose-escalation phase 1 study (clinicaltrials.gov identifier: NCT03272256) was designed to determine the MTD or RP2D and to evaluate the safety and tolerability of IM156. Secondary endpoints included PK characteristics, efficacy assessment (objective response rate [ORR], disease control rate [DCR], duration of response [DoR] and progression-free survival [PFS]). Furthermore, exploratory objectives included identification and profiling of IM156 metabolites, evaluations of exploratory PD markers of IM156, and evaluations of any potential relationship between putative biomarkers and safety/efficacy parameters of IM156. The study was conducted in accordance with Good Clinical Practice, the International Council for Harmonisation, and guidelines governing clinical study conduct and the ethical principles originating from the Declaration of Helsinki. The study was approved by each Institutional Review Board and patients provided written informed consent. Patients were enrolled at three sites in South Korea.
The initial dose and schedule of IM156 was chosen based on animal toxicology studies. […] IM156 was administered in the fasted state, with no food for at least 2 h before and 1 h after dosing.
Three DLT-evaluable patients were enrolled at each dose level. If there were no DLTs or other prohibitive adverse events (AEs), the Safety Committee was allowed to recommend escalation to the next highest dose level. If 1 DLT occurred in the first 3 DLT-evaluable patients, enrollment in that cohort was expanded to an additional 3 DLT-evaluable patients; if ≥ 2 DLTs were reported in a cohort, that dose was considered above the MTD.
Safety was assessed through vital signs, weight, laboratory assessments, physical examinations, electrocardiogram, and reporting of AEs as graded by the National Cancer Institute’s Common Terminology Criteria for Adverse Events v4.03 (NCI-CTCAE).
DLTs were defined as the following AEs if they were attributed as related to IM156: asymptomatic grade 4 neutropenia lasting for ≥ 5 days; febrile neutropenia, regardless of grade; grade 4 thrombocytopenia or grade 3 thrombocytopenia with bleeding; any grade ≥ 3 non-hematologic AE (except grade 3 hypertension and grade 3 nausea, vomiting or diarrhea for which proper measures for prevention and treatment were not implemented, and alopecia); blood lactate levels > 5 mmol; grade ≥ 2 AE prohibiting dosing of IM156 for ≥ 21 continuous days except for alterations in serum calcium or phosphorus levels. The safety analysis includes all patients who received at least one dose of study drug.
The safety population was defined as all patients who received at least one dose of IM156. The PK population was not defined in the protocol but included all patients with sufficient PK data to perform adequate PK modeling. The efficacy population included all patients who underwent at least one tumor imaging assessment while receiving IM156. Safety was assessed using descriptive statistics (e.g., DLTs, AEs, laboratory tests, physical examination, 12-lead ECG). The incidence and number of events were reported for the DLTs observed in Cycle 1 per dose group. […] Adverse events and TRAEs were standardized with the System Organ Class and the Preferred Term using the Medical Dictionary for Regulatory Activities v23.0. In addition, TEAEs, serious adverse events (SAEs), TEAE severity, and TEAEs leading to withdrawal were presented by dose group. Efficacy data were to be presented by Waterfall and Swim Lane plots. Time to event endpoints (e.g., DoR, PFS) were determined using Kaplan–Meier estimations with the median value for each endpoint summarized.

NC(=Nc1ccc(OC(F)(F)F)cc1)N=C(N)N1CCCC1 [IM156]
1: TEAE Psychiatric disorders grade 1 (DL6 800 mg orally daily (n=3)) | TEAE Akathisia, grade 2 (DL7 1200 mg QD (n=4)) | TEAE Alanine aminotransferase increased, grade 1 (DL7 1200 mg QD (n=4)) | TEAE Aspartate aminotransferase increased, grade 1 (DL7 1200 mg QD (n=4)) | TEAE Blood lactic acid increased, grade 1 (DL7 1200 mg QD (n=4)) | TEAE Constipation, grade 1 (DL7 1200 mg QD (n=4)) | TEAE Decreased appetite, grade 2 (DL7 1200 mg QD (n=4)) | TEAE Dysesthesia, grade 1 (DL7 1200 mg QD (n=4)) | TEAE Gastritis, grade 1 (DL7 1200 mg QD (n=4)) | TEAE Hemoptysis, grade 2 (DL7 1200 mg QD (n=4)) | TEAE Hyperkalaemia, grade 3 (DL7 1200 mg QD (n=4)) | TEAE Ileus, grade 2 (DL7 1200 mg QD (n=4)) | TEAE Influenza like illness, grade 1 (DL7 1200 mg QD (n=4)) | TEAE Lethargy, grade 2 (DL7 1200 mg QD (n=4)) | TEAE Oedema peripheral, grade 2 (DL7 1200 mg QD (n=4)) | TEAE Pain, grade 2 (DL7 1200 mg QD (n=4)) | TEAE Platelet count decreased, grade 1 (DL7 1200 mg QD (n=4)) | TEAE Pyrexia, grade 2 (DL7 1200 mg QD (n=4)) | TRAE Abdominal Pain, All grades (patients) (DL7 1,200 mg QD, N = 4) | TRAE Blood Lactic Acid increased, All grades (patients) (DL7 1,200 mg QD, N = 4) | TRAE Constipation, All grades (patients) (DL7 1,200 mg QD, N = 4) | TRAE Decreased appetite, All grades (patients) (DL7 1,200 mg QD, N = 4) | TRAE Diarrhoea, All grades (patients) (DL7 1,200 mg QD, N = 4) | TEAE Anaemia grade 2 (DL7 1200 mg orally daily (n=4)) | TEAE Anaemia grade 3 (DL7 1200 mg orally daily (n=4)) | TEAE Appendicitis perforated grade 3 (DL7 1200 mg orally daily (n=4)) | TEAE Dry skin grade 2 (DL7 1200 mg orally daily (n=4)) | TEAE Pruritus grade 1 (DL7 1200 mg orally daily (n=4)) | TEAE Purpura grade 1 (DL7 1200 mg orally daily (n=4))
2: TEAE Abdominal pain, grade 2 (DL7 1200 mg QD (n=4)) | TEAE Blood creatinine increased, grade 1 (DL7 1200 mg QD (n=4)) | TEAE Diarrhoea, grade 1 (DL7 1200 mg QD (n=4)) | TEAE Nausea, grade 2 (DL7 1200 mg QD (n=4)) | TEAE Nausea, grade 3 (DL7 1200 mg QD (n=4)) | TEAE Pyrexia, grade 1 (DL7 1200 mg QD (n=4)) | TRAE Nausea, > G3 (patients) (DL7 1,200 mg QD, N = 4)
4: TRAE Nausea, All grades (patients) (DL7 1,200 mg QD, N = 4)
0: TEAE Pain in extremity grade 4 (DL6 800 mg orally daily (n=3)) | TEAE Pruritus grade 1 (DL6 800 mg orally daily (n=3)) | TEAE Pruritus grade 2 (DL6 800 mg orally daily (n=3)) | TEAE Pruritus grade 3 (DL6 800 mg orally daily (n=3)) | TEAE Pruritus grade 4 (DL6 800 mg orally daily (n=3)) | TEAE Psychiatric disorders grade 2 (DL6 800 mg orally daily (n=3)) | TEAE Psychiatric disorders grade 3 (DL6 800 mg orally daily (n=3)) | TEAE Psychiatric disorders grade 4 (DL6 800 mg orally daily (n=3)) | TEAE Purpura grade 1 (DL6 800 mg orally daily (n=3)) | TEAE Purpura grade 2 (DL6 800 mg orally daily (n=3)) | TEAE Purpura grade 3 (DL6 800 mg orally daily (n=3)) | TEAE Purpura grade 4 (DL6 800 mg orally daily (n=3)) | TEAE Urinary retention grade 1 (DL6 800 mg orally daily (n=3)) | TEAE Urinary retention grade 2 (DL6 800 mg orally daily (n=3)) | TEAE Urinary retention grade 3 (DL6 800 mg orally daily (n=3)) | TEAE Urinary retention grade 4 (DL6 800 mg orally daily (n=3)) | TEAE Urinary tract disorder grade 1 (DL6 800 mg orally daily (n=3)) | TEAE Urinary tract disorder grade 2 (DL6 800 mg orally daily (n=3)) | TEAE Urinary tract disorder grade 3 (DL6 800 mg orally daily (n=3)) | TEAE Urinary tract disorder grade 4 (DL6 800 mg orally daily (n=3)) | TRAE Abdominal Pain, > G3 (patients) (DL7 1,200 mg QD, N = 4) | TRAE Blood Lactic Acid increased, > G3 (patients) (DL7 1,200 mg QD, N = 4) | TRAE Constipation, > G3 (patients) (DL7 1,200 mg QD, N = 4) | TRAE Decreased appetite, > G3 (patients) (DL7 1,200 mg QD, N = 4) | TRAE Diarrhoea, > G3 (patients) (DL7 1,200 mg QD, N = 4) | TRAE Fatigue, > G3 (patients) (DL7 1,200 mg QD, N = 4) | TRAE Insomnia, > G3 (patients) (DL7 1,200 mg QD, N = 4) | TRAE Insomnia, All grades (patients) (DL7 1,200 mg QD, N = 4) | TRAE Vomiting, > G3 (patients) (DL7 1,200 mg QD, N = 4) | TEAE Adrenal insufficiency grade 1 (DL7 1200 mg orally daily (n=4)) | TEAE Adrenal insufficiency grade 2 (DL7 1200 mg orally daily (n=4)) | TEAE Adrenal insufficiency grade 3 (DL7 1200 mg orally daily (n=4)) | TEAE Adrenal insufficiency grade 4 (DL7 1200 mg orally daily (n=4)) | TEAE Anaemia grade 1 (DL7 1200 mg orally daily (n=4)) | TEAE Anaemia grade 4 (DL7 1200 mg orally daily (n=4)) | TEAE Appendicitis perforated grade 1 (DL7 1200 mg orally daily (n=4)) | TEAE Appendicitis perforated grade 2 (DL7 1200 mg orally daily (n=4)) | TEAE Appendicitis perforated grade 4 (DL7 1200 mg orally daily (n=4)) | TEAE Back pain grade 1 (DL7 1200 mg orally daily (n=4)) | TEAE Back pain grade 2 (DL7 1200 mg orally daily (n=4)) | TEAE Back pain grade 3 (DL7 1200 mg orally daily (n=4)) | TEAE Back pain grade 4 (DL7 1200 mg orally daily (n=4)) | TEAE Cystitis grade 1 (DL7 1200 mg orally daily (n=4)) | TEAE Cystitis grade 2 (DL7 1200 mg orally daily (n=4)) | TEAE Cystitis grade 3 (DL7 1200 mg orally daily (n=4)) | TEAE Cystitis grade 4 (DL7 1200 mg orally daily (n=4)) | TEAE Dry skin grade 1 (DL7 1200 mg orally daily (n=4)) | TEAE Dry skin grade 3 (DL7 1200 mg orally daily (n=4)) | TEAE Dry skin grade 4 (DL7 1200 mg orally daily (n=4)) | TEAE Flank pain grade 1 (DL7 1200 mg orally daily (n=4)) | TEAE Flank pain grade 2 (DL7 1200 mg orally daily (n=4)) | TEAE Flank pain grade 3 (DL7 1200 mg orally daily (n=4)) | TEAE Flank pain grade 4 (DL7 1200 mg orally daily (n=4)) | TEAE Hypertension grade 1 (DL7 1200 mg orally daily (n=4)) | TEAE Hypertension grade 2 (DL7 1200 mg orally daily (n=4)) | TEAE Hypertension grade 3 (DL7 1200 mg orally daily (n=4)) | TEAE Hypertension grade 4 (DL7 1200 mg orally daily (n=4)) | TEAE Hypotension grade 1 (DL7 1200 mg orally daily (n=4)) | TEAE Hypotension grade 2 (DL7 1200 mg orally daily (n=4)) | TEAE Hypotension grade 3 (DL7 1200 mg orally daily (n=4)) | TEAE Hypotension grade 4 (DL7 1200 mg orally daily (n=4)) | TEAE Insomnia grade 1 (DL7 1200 mg orally daily (n=4)) | TEAE Insomnia grade 2 (DL7 1200 mg orally daily (n=4)) | TEAE Insomnia grade 3 (DL7 1200 mg orally daily (n=4)) | TEAE Insomnia grade 4 (DL7 1200 mg orally daily (n=4)) | TEAE Pain in extremity grade 1 (DL7 1200 mg orally daily (n=4)) | TEAE Pain in extremity grade 2 (DL7 1200 mg orally daily (n=4)) | TEAE Pain in extremity grade 3 (DL7 1200 mg orally daily (n=4)) | TEAE Pain in extremity grade 4 (DL7 1200 mg orally daily (n=4)) | TEAE Pruritus grade 2 (DL7 1200 mg orally daily (n=4)) | TEAE Pruritus grade 3 (DL7 1200 mg orally daily (n=4)) | TEAE Pruritus grade 4 (DL7 1200 mg orally daily (n=4)) | TEAE Psychiatric disorders grade 1 (DL7 1200 mg orally daily (n=4)) | TEAE Psychiatric disorders grade 2 (DL7 1200 mg orally daily (n=4)) | TEAE Psychiatric disorders grade 3 (DL7 1200 mg orally daily (n=4)) | TEAE Psychiatric disorders grade 4 (DL7 1200 mg orally daily (n=4))
3: TEAE Fatigue, grade 2 (DL7 1200 mg QD (n=4)) | TEAE Vomiting, grade 1 (DL7 1200 mg QD (n=4)) | TRAE Fatigue, All grades (patients) (DL7 1,200 mg QD, N = 4) | TRAE Vomiting, All grades (patients) (DL7 1,200 mg QD, N = 4)

Source: article PMC9395488, “First-in-human study of IM156, a novel potent biguanide oxidative phosphorylation (OXPHOS) inhibitor, in patients with advanced solid tumors” (Investigational New Drugs, 2022)
